23 compounds from patent publication US11058678B2 (Enanta Pharmaceuticals, Inc., priority 2018, dated 2021) can be followed below.

In the experiment the test system is HBV (2.2.15 cells). Put plainly: Antiviral activity in 2.2.15 cells: reduction of viral product accumulation (qPCR of lysates, HBsAg or HBeAg ELISA). As to conditions: Hepatitis B virus, 120 h, day 5 post treatment, 50% reduction of viral product accumulation in lysates or supernatants vs no drug controls, readout (qPCR, HBsAg, HBeAg) not specified. The experiment is classed as cell-based, hepatitis B virus (HBV). Here is the method: 2.2.15 cells are passaged upon attaining confluency in DMEM/F12 media in the presence of 10% FBS, Penn/Strep, and 250 ug/mL G418. Novel compounds are 5 fold serially diluted in DMSO and added to 96 well plates containing 35,000 cells/well at a 1:200 dilution so that the final concentration of DMSO is 0.5%. On day 5, post treatment cell lysates and supernatants are harvested for analysis.
Cells are lysed using Agilent Sidestep Lysis buffer, diluted 1:100 and quantified via quantitative real time PCR. Commercially available ELISA kits are used to quantitate the viral proteins HBsAg (Alpco) or HBeAg (US Biological) by following the manufacturer's recommended protocol after diluting samples to match the linear range of their respective assays. Irrespective of readout, compound concentrations that reduce viral product accumulation in the cell lysates or supernatants by 50% relative to no drug controls (EC50) are reported; EC50 ranges are as follows: A<0.1 μM; B 0.1-1 μM; C>1 μM.
On the technique in general: In qPCR the cycle at which signal appears reflects the starting amount.

With `CC(C)[C@@H]1Cc2c(cc(-c3ccn(C)n3)c3c2CCO3)-c2cc(=O)c(C(=O)O)cn21` [Example 98, (S)-5-isopropyl-12-(1-methyl-1H-pyrazol-3-yl)-9-oxo-2,3,4,9-tetrahydro-5H-furo[3,2-f]pyrido[2,1-a]isoquinoline-8-carboxylic Acid], the EC50 (in general, the concentration at which the effect is half-maximal) is over 1000 nM.
For `CC(C)[C@@H]1Cc2c(cc(-c3cccs3)c3c2CCO3)-c2cc(=O)c(C(=O)O)cn21` [Example 99, (S)-5-isopropyl-9-oxo-12-(thiophen-2-yl)-2,3,4,9-tetrahydro-5H-furo[3,2-f]pyrido[2,1-a]isoquinoline-8-carboxylic Acid] the value was under 100 nM; for `CC(C)[C@@H]1Cc2c(cc(-c3ccco3)c3c2CCO3)-c2cc(=O)c(C(=O)O)cn21` [Example 101, (S)-12-(furan-2-yl)-5-isopropyl-9-oxo-2,3,4,9-tetrahydro-5H-furo[3,2-f]pyrido[2,1-a]isoquinoline-8-carboxylic Acid], under 100 nM.
For `CC(C)[C@@H]1Cc2c(cc(-c3cn[nH]c3)c3c2CCO3)-c2cc(=O)c(C(=O)O)cn21` [Example 102, (S)-5-isopropyl-9-oxo-12-(1H-pyrazol-4-yl)-2,3,4,9-tetrahydro-5H-furo[3,2-f]pyrido[2,1-a]isoquinoline-8-carboxylic Acid] the value was under 100 nM.
As for `CC(C)[C@@H]1Cc2c(cc(-c3cnsc3)c3c2CCO3)-c2cc(=O)c(C(=O)O)cn21` [Example 103, (S)-5-isopropyl-12-(isothiazol-4-yl)-9-oxo-2,3,4,9-tetrahydro-5H-furo[3,2-f]pyrido[2,1-a]isoquinoline-8-carboxylic Acid], the figure is under 100 nM; as for `CC(C)[C@@H]1Cc2c(cc(-c3ccncc3)c3c2CCO3)-c2cc(=O)c(C(=O)O)cn21` [Example 104, (S)-5-isopropyl-9-oxo-12-(pyridin-4-yl)-2,3,4,9-tetrahydro-5H-furo[3,2-f]pyrido[2,1-a]isoquinoline-8-carboxylic Acid], under 100 nM.
In turn, `CC(C)[C@@H]1Cc2c(cc(-c3cccnc3)c3c2CCO3)-c2cc(=O)c(C(=O)O)cn21` [Example 105, (S)-5-isopropyl-9-oxo-12-(pyridin-3-yl)-2,3,4,9-tetrahydro-5H-furo[3,2-f]pyrido[2,1-a]isoquinoline-8-carboxylic Acid] displayed an EC50 of under 100 nM.
As for `CC(C)[C@@H]1Cc2c(cc(-c3ccn[nH]3)c3c2CCO3)-c2cc(=O)c(C(=O)O)cn21` [Example 106, (S)-5-isopropyl-9-oxo-12-(1H-pyrazol-5-yl)-2,3,4,9-tetrahydro-5H-furo[3,2-f]pyrido[2,1-a]isoquinoline-8-carboxylic Acid], the figure is under 100 nM; as for `CC(C)[C@@H]1Cc2c(cc(-c3cccc(F)c3)c3c2CCO3)-c2cc(=O)c(C(=O)O)cn21` [Example 107, (S)-12-(3-fluorophenyl)-5-isopropyl-9-oxo-2,3,4,9-tetrahydro-5H-furo[3,2-f]pyrido[2,1-a]isoquinoline-8-carboxylic Acid], under 100 nM; as for `CC(C)[C@@H]1Cc2c(cc(-c3ccccc3F)c3c2CCO3)-c2cc(=O)c(C(=O)O)cn21` [Example 108, (S)-12-(2-fluorophenyl)-5-isopropyl-9-oxo-2,3,4,9-tetrahydro-5H-furo[3,2-f]pyrido[2,1-a]isoquinoline-8-carboxylic Acid], under 100 nM.
As for `CC(C)[C@@H]1Cc2c(cc(-c3ccc(Cl)cc3)c3c2CCO3)-c2cc(=O)c(C(=O)O)cn21` [Example 109, (S)-12-(4-chlorophenyl)-5-isopropyl-9-oxo-2,3,4,9-tetrahydro-5H-furo[3,2-f]pyrido[2,1-a]isoquinoline-8-carboxylic Acid], the figure is over 1000 nM; as for `CC(C)[C@@H]1Cc2c(cc(N3CCCC3)c3c2CCO3)-c2cc(=O)c(C(=O)O)cn21` [Example 110, (S)-5-isopropyl-9-oxo-12-(pyrrolidin-1-yl)-2,3,4,9-tetrahydro-5H-furo[3,2-f]pyrido[2,1-a]isoquinoline-8-carboxylic Acid], under 100 nM.
As for `CC(C)(C)[C@@H]1Cc2c(cc(N3CCC3)c3c2CCO3)-c2cc(=O)c(C(=O)O)cn21` [Example 111, (S)-12-(azetidin-1-yl)-5-(tert-butyl)-9-oxo-2,3,4,9-tetrahydro-5H-furo[3,2-f]pyrido[2,1-a]isoquinoline-8-carboxylic Acid], the figure is under 100 nM; as for `CC(C)[C@@H]1Cc2c(cc(-c3cccc(Cl)c3)c3c2CCO3)-c2cc(=O)c(C(=O)O)cn21` [Example 112, (S)-12-(3-chlorophenyl)-5-isopropyl-9-oxo-2,3,4,9-tetrahydro-5H-furo[3,2-f]pyrido[2,1-a]isoquinoline-8-carboxylic Acid], over 1000 nM; as for `CC(C)[C@@H]1Cc2c(cc(-c3ccccc3Cl)c3c2CCO3)-c2cc(=O)c(C(=O)O)cn21` [Example 113], over 1000 nM.
As for `CC(C)[C@@H]1Cc2c(cc(-c3ccc(F)c(F)c3)c3c2CCO3)-c2cc(=O)c(C(=O)O)cn21` [Example 114, (S)-12-(3,4-difluorophenyl)-5-isopropyl-9-oxo-2,3,4,9-tetrahydro-5H-furo[3,2-f]pyrido[2,1-a]isoquinoline-8-carboxylic Acid], the EC50 was over 1000 nM.
For `COc1ccc(-c2cc3c(c4c2OCC4)C[C@@H](C(C)C)n2cc(C(=O)O)c(=O)cc2-3)cc1` [Example 115, (S)-5-isopropyl-12-(4-methoxyphenyl)-9-oxo-2,3,4,9-tetrahydro-5H-furo[3,2-f]pyrido[2,1-a]isoquinoline-8-carboxylic Acid] the value was over 1000 nM; for `CC(C)[C@@H]1Cc2c(cc(-n3cccn3)c3c2CCO3)-c2cc(=O)c(C(=O)O)cn21` [Example 116], under 100 nM; for `CC(C)[C@@H]1Cc2c(cc(N3CCC3)c3c2CCO3)-c2cc(=O)c(C(=O)O)cn21` [Example 117, (S)-12-(azetidin-1-yl)-5-isopropyl-9-oxo-2,3,4,9-tetrahydro-5H-furo[3,2-f]pyrido[2,1-a]isoquinoline-8-carboxylic Acid], under 100 nM.
For `CC(C)(C)[C@@H]1Cc2c(cc(N3CCOCC3)c3c2CCO3)-c2cc(=O)c(C(=O)O)cn21` [Example 118, (S)-5-(tert-butyl)-12-morpholino-9-oxo-2,3,4,9-tetrahydro-5H-furo[3,2-f]pyrido[2,1-a]isoquinoline-8-carboxylic Acid] the value was under 100 nM; for `CC(C)(C)[C@@H]1Cc2c(cc(N3CC4(COC4)C3)c3c2CCO3)-c2cc(=O)c(C(=O)O)cn21` [Example 119, (S)-5-(tert-butyl)-9-oxo-12-(2-oxa-6-azaspiro[3.3]heptan-6-yl)-2,3,4,9-tetrahydro-5H-furo[3,2-f]pyrido[2,1-a]isoquinoline-8-carboxylic Acid], over 1000 nM; for `CC(C)(C)[C@@H]1Cc2c(cc(N3CC4(CCO4)C3)c3c2CCO3)-c2cc(=O)c(C(=O)O)cn21` [Example 120, (S)-5-(tert-butyl)-9-oxo-12-(1-oxa-6-azaspiro[3.3]heptan-6-yl)-2,3,4,9-tetrahydro-5H-furo[3,2-f]pyrido[2,1-a]isoquinoline-8-carboxylic Acid], over 1000 nM.
For `COCCCOc1cc2c(cc1-c1cnco1)-c1cc(=O)c(C(=O)O)cn1[C@H]1[C@@H]2COC1(C)C` [Example 121, (3aS,12bR)-11-(3-methoxypropoxy)-3,3-dimethyl-10-(oxazol-5-yl)-7-oxo-3,3a,7,12b-tetrahydro-1H-furo[3,4-c]pyrido[2,1-a]isoquinoline-6-carboxylic Acid] the value was under 100 nM.
